Data reported in US11214578B2, “Urea/carbamates FAAH MAGL or dual FAAH/MAGL inhibitors and uses thereof” (Northeastern University, priority 2014, dated 2022).
Read-outs that look alike come from different tables or passages of the source.

What was measured:
Format in all cases: biochemical
ΔTM rat FAAH = target: T1, ΔTM rat FAAH (Rattus norvegicus, UniProt P97612); test: Fluorescent assay protocol for ΔTM rat FAAH (AAMCA substrate); settings: 15 min preincubation, read-out: IC50 rFAAH
T1 construct: Preparation of Transmembrane Domain-Deleted Rat FAAH (ΔTM rFAAH); made in house; host or cells: E. coli
T1 sequence (P97612 30-579 limits assumed): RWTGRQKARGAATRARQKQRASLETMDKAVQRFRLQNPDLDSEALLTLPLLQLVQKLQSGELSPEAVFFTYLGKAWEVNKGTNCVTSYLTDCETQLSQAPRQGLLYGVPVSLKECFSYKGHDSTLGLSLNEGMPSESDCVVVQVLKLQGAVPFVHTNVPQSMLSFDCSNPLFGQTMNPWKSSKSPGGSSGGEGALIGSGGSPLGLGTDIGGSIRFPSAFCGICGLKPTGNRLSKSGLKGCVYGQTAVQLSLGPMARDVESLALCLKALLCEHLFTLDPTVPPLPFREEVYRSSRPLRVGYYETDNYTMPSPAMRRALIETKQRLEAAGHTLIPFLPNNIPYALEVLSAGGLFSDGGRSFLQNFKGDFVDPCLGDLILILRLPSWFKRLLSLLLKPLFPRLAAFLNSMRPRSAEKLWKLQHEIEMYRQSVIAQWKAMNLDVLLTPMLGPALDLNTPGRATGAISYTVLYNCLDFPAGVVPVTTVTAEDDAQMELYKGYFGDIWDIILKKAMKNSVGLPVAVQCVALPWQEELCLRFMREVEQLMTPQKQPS
Description: Procedure was followed as described for hMAGL, except that arachidonoyl-methyl coumarin amide (AAMCA) was used as fluorigenic substrate. […] For the screening assay, 3 concentrations (1 μM, 10 μM, and 100 μM) of test compounds, 15 μg of ΔTM rFAAH and assay buffer were pre-incubated for 15 min at 25° C. […] The fluorescence reading at the 3 hour time point (linear enzyme kinetics) was used to calculate percent inhibition based on control assays without inhibitor present. All FAAH assays were performed in triplicate for each inhibitor concentration, and IC50 values determined using Prizm software (GraphPad Software, Inc.).

Human MAGL (hMAGL) = target: T2, Human MAGL (hMAGL) (Homo sapiens, UniProt Q99685); test: Fluorescent assay protocol for hMAGL (AHMMCE substrate)
T2 construct: hexahistidine; made in house; host or cells: E. coli
T2 sequence (Q99685 1-303): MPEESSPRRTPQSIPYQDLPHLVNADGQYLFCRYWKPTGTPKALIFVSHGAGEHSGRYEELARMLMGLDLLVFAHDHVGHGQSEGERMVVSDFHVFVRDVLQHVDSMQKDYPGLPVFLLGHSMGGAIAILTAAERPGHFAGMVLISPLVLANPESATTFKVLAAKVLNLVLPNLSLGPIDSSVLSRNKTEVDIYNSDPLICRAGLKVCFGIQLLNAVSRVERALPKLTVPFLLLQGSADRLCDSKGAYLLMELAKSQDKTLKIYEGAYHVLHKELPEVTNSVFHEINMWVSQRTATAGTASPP
Description: (§1) This medium throughput assay involved a 96-well plate format in which hMAGL activity was monitored by the hydrolysis of the substrate 7-hydroxy-6-methoxy-4-methylcoumarin ester (AHMMCE) to form the fluorescent product, coumarin. […] Upon the addition of AHMMCE, the reaction was incubated at 25° C. for 120 min; fluorescence readings were taken every 15 min at 360 nm/460 nm (λexcitation/λemission) using a Synergy HT Plate Reader (Bio-Tek, Winooski, Vt.). […] External standards were used to convert relative fluorescence units to the amount of 4-methylcoumarin formed. All MAGL assays were performed in triplicate for each inhibitor concentration, and IC50 values were calculated using Prizm software (GraphPad Software, Inc., San Diego, Calif.).

Rat MAGL (rMAGL) = target: T3, Rat MAGL (rMAGL) (Rattus norvegicus, UniProt Q8R431); test: Fluorescent assay protocol for rMAGL
T3 construct: made in house; host or cells: E. coli
T3 sequence (Q8R431 1-303): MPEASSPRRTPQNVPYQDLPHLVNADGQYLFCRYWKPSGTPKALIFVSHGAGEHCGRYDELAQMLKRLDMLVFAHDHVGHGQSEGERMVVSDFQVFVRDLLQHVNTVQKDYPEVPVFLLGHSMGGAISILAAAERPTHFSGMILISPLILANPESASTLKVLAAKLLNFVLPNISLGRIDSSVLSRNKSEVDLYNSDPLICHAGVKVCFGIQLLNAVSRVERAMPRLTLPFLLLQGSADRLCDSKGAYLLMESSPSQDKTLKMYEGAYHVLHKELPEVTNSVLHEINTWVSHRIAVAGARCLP
Description: as §1
Procedure was followed as described for hMAGL.

Human FAAH (MBPΔTMhFAAH) = target: T4, Human FAAH (MBPΔTMhFAAH) (Homo sapiens, UniProt O00519); test: Fluorescent assay protocol for hFAAH; settings: human FAAH (MBP fusion, ΔTM), procedure as for rFAAH
T4 construct: made in house; host or cells: E. coli (pMALcE4 vector)
T4 sequence (O00519 30-579 limits assumed): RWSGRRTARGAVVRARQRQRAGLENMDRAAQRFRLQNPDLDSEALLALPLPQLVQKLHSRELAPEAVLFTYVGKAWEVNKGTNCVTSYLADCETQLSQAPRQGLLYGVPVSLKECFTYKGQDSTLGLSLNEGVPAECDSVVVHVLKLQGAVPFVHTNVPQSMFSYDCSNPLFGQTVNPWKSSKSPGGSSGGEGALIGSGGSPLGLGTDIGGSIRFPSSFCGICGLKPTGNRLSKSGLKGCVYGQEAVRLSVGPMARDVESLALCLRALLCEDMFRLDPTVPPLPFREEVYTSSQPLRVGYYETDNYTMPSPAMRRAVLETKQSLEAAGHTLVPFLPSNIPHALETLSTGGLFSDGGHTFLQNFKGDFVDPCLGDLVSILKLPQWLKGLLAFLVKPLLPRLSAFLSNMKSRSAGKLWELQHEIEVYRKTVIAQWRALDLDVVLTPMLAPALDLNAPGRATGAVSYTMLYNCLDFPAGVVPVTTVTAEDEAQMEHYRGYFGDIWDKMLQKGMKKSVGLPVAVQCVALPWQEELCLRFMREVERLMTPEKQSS
Description: Human FAAH without putative transmembrane domain following maltose binding protein was expressed in E. coli cells using pMALcE4 vector Alapafuja et al J. Med. Chem. (2012) 55: 10074-89.
Procedure was followed as described for hMAGL, except that arachidonoyl-methyl coumarin amide (AAMCA) was used as fluorigenic substrate. Compounds were diluted in 50:50 DMSO/assay buffer (50 mM HEPES, 1 mM EDTA, 0.1% BSA, pH 7.4) so as to have a final DMSO concentration below 8% in each reaction. For the screening assay, 3 concentrations (1 μM, 10 μM, and 100 μM) of test compounds, 15 μg of ΔTM rFAAH and assay buffer were pre-incubated for 15 min at 25° C. AAMCA (20 μM, 2×Km) was added prior to incubation at 25° C. and kinetic fluorescence reading every 20 minutes (λex=360/λem=460) for 4 hours on a BioTek Synergy HT Microplate Reader (BioTek Instruments, Winooski, Vt.). The fluorescence reading at the 3 hour time point (linear enzyme kinetics) was used to calculate percent inhibition based on control assays without inhibitor present. All FAAH assays were performed in triplicate for each inhibitor concentration, and IC50 values determined using Prizm software (GraphPad Software, Inc.).
Procedure was followed as described for rFAAH.

[1] = recombinant human MAGL, AHMMCE substrate, 15 min preincubation, read-out: IC50 hMAGL
[2] = recombinant rat MAGL, procedure as for hMAGL, read-out: IC50 rMAGL

IC50 (ΔTM rat FAAH) [nM] | IC50 (Human MAGL (hMAGL); [1]) [nM] | IC50 (Rat MAGL (rMAGL); [2]) [nM] | IC50 (Human FAAH (MBPΔTMhFAAH)) [nM] | SMILES | IC50 (Human MAGL (hMAGL)) [nM] | IC50 (Rat MAGL (rMAGL)) [nM]
110 to 1000 | > 1000 | > 1000 | 110 to 1000 | O=C(N1CCN(C(c2ccc(F)cc2)c2ccc(F)cc2)CC1)n1cnc(Br)c1 [Example 28, (4-(bis(4-fluorophenyl)methyl)piperazin-1-yl)(4-bromo-1H-imidazol-1-yl)methanone] | – | –
> 1000 | 10 to 100 | 10 to 100 | > 1000 | Cc1ccc(S(=O)(=O)N2CCN(C(=O)Oc3ccc(Br)cc3)CC2)cc1 [Example 64, 4-bromophenyl 4-tosylpiperazine-1-carboxylate] | – | –
10 to 100 | 10 to 100 | 110 to 1000 | 10 to 100 | COC(=O)c1cccc(OC(=O)N2CCC(OC(c3ccccc3)c3ccccc3)CC2)c1 [Example 55, 3-(methoxycarbonyl)phenyl 4-(benzhydryloxy)piperidine-1-carboxylate] | – | –
10 to 100 | > 1000 | > 1000 | 10 to 100 | NC(=O)c1cccc(-c2cccc(NC(=O)N3CCN(Cc4ccc5ccccc5n4)CC3)c2)c1 [Example 12, N-(3′-carbamoyl-[1,1′-biphenyl]-3-yl)-4-(quinolin-2-ylmethyl)piperazine-1-carboxamide] | – | –
> 1000 | 10 to 100 | 10 to 100 | > 1000 | O=C(Oc1cccc(Cl)n1)N1CCC(OC(c2ccccc2)c2ccccc2)CC1 [Example 57, 6-chloropyridin-2-yl 4-(benzhydryloxy)piperidine-1-carboxylate] | – | –
10 to 100 | > 1000 | > 1000 | 110 to 1000 | CC1CN(C(=O)n2cnc(-c3ccccc3)c2)CCN1c1ccccc1 (centres unmarked) [Example 24, (3-methyl-4-phenylpiperazin-1-yl)(4-phenyl-1H-imidazol-1-yl)methanone] | – | –
> 1000 | 10 to 100 | 10 to 100 | > 1000 | O=C(Nc1cccc(N2CCS(=O)(=O)CC2)c1)N1CCN(c2ccccc2)CC1 [Example 67, N-(3-(1,1-dioxidothiomorpholino)phenyl)-4-phenylpiperazine-1-carboxamide] | – | –
10 to 100 | > 1000 | > 1000 | 10 to 100 | COc1cccc(OC(=O)N2CC(OCc3ccc(Br)cc3)C2)c1 [Example 78, 3-Methoxyphenyl 3-(4-Bromobenzyloxy)azetidine-1-carboxylate] | – | –
10 to 100 | 110 to 1000 | 110 to 1000 | 10 to 100 | NC(=O)c1cccc(-c2cccc(NC(=O)N3CCN(Cc4cnc5ccccc5c4)CC3)c2)c1 [Example 6, N-(3′-carbamoyl-[1,1′-biphenyl]-3-yl)-4-(quinolin-3-ylmethyl)piperazine-1-carboxamide] | – | –
10 to 100 | > 1000 | > 1000 | 10 to 100 | O=C(N1CC(N2CCC(c3ccccc3)CC2)C1)n1cnc(-c2ccccc2)c1 [Example 85, (4-Phenyl-1H-imidazol-1-yl)(3-(4-phenylpiperidin-1-yl)azetidin-1-yl)methanone] | – | –
110 to 1000 | 110 to 1000 | 110 to 1000 | 10 to 100 | O=C(Oc1cccc(Cl)n1)N1CCC(C(c2ccccc2)c2ccccc2)CC1 [Example 54, 6-Chloropyridin-2-yl 4-(benzhydryl)piperidine-1-carboxylate] | – | –
10 to 100 | > 1000 | > 1000 | 110 to 1000 | CC1CN(C(=O)n2cnc(-c3ccccc3)c2)CCN1c1cccc(OCc2ccccc2)c1 (centres unmarked) [Example 26, (4-(3-(benzyloxy)phenyl)-3-methylpiperazin-1-yl)(4-phenyl-1H-imidazol-1-yl)methanone] | – | –
> 1000 | 110 to 1000 | 110 to 1000 | > 1000 | O=C(Oc1c(F)cccc1F)N1CCC(S(=O)(=O)c2ccc(Br)cc2)CC1 [Example 63, 2,6-Difluorophenyl 4-(4-bromophenylsulfonyl)piperidine-1-carboxylate] | – | –
110 to 1000 | 110 to 1000 | 110 to 1000 | 110 to 1000 | N#Cc1ccc(F)c(OC(=O)N2CCC(OC(c3ccccc3)c3ccccc3)CC2)c1 [Example 56, 5-cyano-2-fluorophenyl 4-(benzhydryloxy)piperidine-1-carboxylate] | – | –

SMILES | IC50 (ΔTM rat FAAH) [nM] | IC50 (Human MAGL (hMAGL); [1]) [nM] | IC50 (Rat MAGL (rMAGL); [2]) [nM] | IC50 (Human FAAH (MBPΔTMhFAAH)) [nM] | IC50 (Human MAGL (hMAGL)) [nM] | IC50 (Rat MAGL (rMAGL)) [nM]
O=C(Oc1ccccc1)N1C[C@@H]2C[C@H]1CN2Cc1cccc(-c2ccccc2)c1 [Example 101, phenyl (1S,4S)-5-([1,1′-biphenyl]-3-ylmethyl)-2,5-diazabicyclo[2.2.1]heptane-2-carboxylate] | 10 to 100 | > 1000 | > 1000 | 10 to 100 | – | –
O=C(Oc1cccc(Cl)n1)N1CCN(C(c2ccccc2)c2ccccc2)CC1 [Example 39, 6-chloropyridin-2-yl 4-benzhydrylpiperazine-1-carboxylate] | 110 to 1000 | > 1000 | > 1000 | 110 to 1000 | – | –
O=C(Oc1ccc(Cl)cc1Cl)N1CC(OCc2ccc(Cl)cc2)C1 [Example 79, 2,4-Dichlorophenyl 3-(4-chlorobenzyloxy)azetidine-1-carboxylate] | 10 to 100 | – | – | 10 to 100 | 110 to 1000 | 110 to 1000
